Data: patent publication US20250026748A1, “N-(5-SUBSTITUTED-[(1,3,4-THIADIAZOLYL) OR (THIAZOLYL)])(SUBSTITUTED)CARBOXAMIDE COMPOUNDS AND USE THEREOF FOR INHIBITING HUMAN POLYMERASE THETA” (Repare Therapeutics Inc., priority 2021, published 2025)

Assays:
CYP3A4 [1] = molecular target: T1, CYP3A4 (Homo sapiens (Human), UniProt P08684); test: Reversible CYP inhibition in human liver microsomes (midazolam probe); type: in vitro ADME; conditions: human liver microsomes 0.1 mg/mL, 2.5 μM midazolam, 5 min, test compound up to 30 μM
T1 sequence (P08684 whole entry): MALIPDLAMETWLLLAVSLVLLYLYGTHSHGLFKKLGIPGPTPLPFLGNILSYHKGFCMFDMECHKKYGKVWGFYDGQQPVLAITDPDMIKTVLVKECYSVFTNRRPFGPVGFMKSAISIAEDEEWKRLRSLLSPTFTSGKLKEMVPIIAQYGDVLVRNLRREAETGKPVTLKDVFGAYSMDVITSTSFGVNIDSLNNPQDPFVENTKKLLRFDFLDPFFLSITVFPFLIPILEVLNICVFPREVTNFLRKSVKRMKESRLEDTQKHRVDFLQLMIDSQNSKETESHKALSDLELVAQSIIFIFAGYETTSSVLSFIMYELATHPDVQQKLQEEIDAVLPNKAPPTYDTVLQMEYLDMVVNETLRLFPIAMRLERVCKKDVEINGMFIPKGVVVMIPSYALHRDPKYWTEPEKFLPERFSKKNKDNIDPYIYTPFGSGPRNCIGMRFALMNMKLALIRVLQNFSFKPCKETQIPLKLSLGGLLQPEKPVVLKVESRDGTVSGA
Description: A seven-point semi-log dilution of each test compound (up to […]) or positive control inhibitors for CYP2C9 (up to 1000 nM sulphenazole), CYP2D6 (up to 500 nM quinidine) and CYP3A4 (up to 250 nM ketoconazole) were dissolved in DMSO and added to the incubation plate using a Tecan 300 (normalized for 0.3% DMSO content). Final reaction conditions were: human liver microsomes (0.1 mg/mL), potassium phosphate buffer 100 mM pH 7.4, 1 mM magnesium chloride, 5 NM diclofenac, 5 NM dextromethorphan and 2.5 μM midazolam. After a pre-incubation at 37 00. The reaction was started with the addition of NADPH solution at the final concentration of 1 mM and carried out at 37 00 for 5 minutes. The reaction was stopped by the addition of 1 volume of cold acetonitrile with internal standard (labetalol) to the incubation plate. The incubation plate was centrifuged at 3000 rpm for 10 minutes to precipitate proteins, and the supernatant was analyzed by LC-MS/MS. Metabolite area ratio (4-OH-diclofenac, dextrorphan and 1-OH-midazolam) versus ISTD area ratio was used as the quantitative signal. Data were analyzed using the plot log of concentration (×-axis) versus the percentage of inhibition (y axis) and the IC50, Hill Slope and R^2 were determined.

[2] = Liver microsomal stability assay; type: in vitro ADME; conditions: pH 7.4; human liver microsomes 0.5 mg/mL, 1 μM compound, NADPH 1 mM, 37 °C
Description: Liver microsomes were thawed on ice prior to use. The incubation mixtures were prepared in 96-well plates and contained test compound or control (1 μM), liver microsomes (0.5 mg of microsomal protein/mL), MgCl2 (5 mM), phosphate buffer (100 mM, pH 7.4), 0.01% DMSO and 1% acetonitrile. A T=0 aliquot was withdrawn after 10 min pre-incubation at 37° C. on a shaker. Reactions were initiated by the addition of NADPH (final concentration of 1 mM) and the plate was kept on a shaker at 37° C., further samples were withdrawn at 5, 15, 30, and 60 minutes. At each timepoint, the reactions were immediately terminated by adding of ice-cold acetonitrile containing internal standard to the withdrawn sample. The extracted samples were centrifuged for 10 minutes at 3200 rpm to pellet the precipitated microsomal protein, and the supernatant was combined 1:1 with water and analyzed by LC-MS/MS. Using the T=0 peak area ratio as 100%, the percentage of parent compound remaining was calculated. For each compound, the In percentage remaining versus incubation time was plotted and the slope of this linear regression (−k) was converted to an in vitro T1/2 value and CLint using the equations below.

CYP3A4 [3] = molecular target: T1, CYP3A4; test: TDI method: time-dependent CYP inhibition, IC50 shift -NADPH/+NADPH; type: in vitro ADME; conditions: IC50 (-NADPH) divided by IC50 (+NADPH), 30 min pre-incubation, human liver microsomes
Description: Test compound or positive control inhibitors (CYP2C9: Tienilic acid; CYP2D6: paroxetine; CYP3A4: mifepristone) were dissolved in DMSO and a semi-log dilution (up to 50.0 μM) was prepared to 2 incubation plates and normalized for a final DMSO content of 0.5%. Human liver microsomes were diluted at 1 mg/mL with 100 mM potassium phosphate buffer pH 7.4 (1 mM MgCl2) and added to both incubation plates. After pre-incubation at 37° C., the reaction was started with the addition of NADPH (+NADPH condition) or with water (-NADPH condition). Plates were incubated for 30 min and 8 μL were transferred to a second incubation plate containing 72 μL of 1 mM NADPH, 20 μM diclofenac (CYP2C9), 20 μM dextromethorphan (CYP2D6) and 10 μM midazolam (CYP3A4) in 100 mM potassium phosphate buffer pH 7.4 (1 mM MgCl2). Plates were incubated for 10 min and the reaction was stopped by the addition of cold acetonitrile containing internal standard (1:1 v/v). Incubation plates were centrifuged at 3000 rpm for 10 minutes to precipitate protein, and the supernatant was used for LC-MS/MS analysis. Metabolite area ratio (4-OH-diclofenac, dextrorphan and 1-OH-midazolam) versus internal standard area ratio was used as the quantitative signal. Data were analyzed using the plot log of concentration (x axis) versus the percentage of inhibition (y axis) and IC50, Hill Slope and R^2 were determined. The IC50 shift was then calculated by dividing the IC50-NADPH condition by the IC50 obtained in the +NADPH condition.

PXR nuclear receptor = PXR nuclear receptor (Homo sapiens (Human), UniProt O75469); test: PXR method: luciferase reporter gene activation in transfected tumor cells; type: cell-based; conditions: test compound 0.03-10 μM; for fold induction at 24 h: compared with vehicle-treated cells, read-out: PXR activation (Max fold induction); for PXR activation (% Max activity): percentage of the response given by Rifampicin at 10 μM, 24 h
Sequence of PXR nuclear receptor (O75469 whole entry): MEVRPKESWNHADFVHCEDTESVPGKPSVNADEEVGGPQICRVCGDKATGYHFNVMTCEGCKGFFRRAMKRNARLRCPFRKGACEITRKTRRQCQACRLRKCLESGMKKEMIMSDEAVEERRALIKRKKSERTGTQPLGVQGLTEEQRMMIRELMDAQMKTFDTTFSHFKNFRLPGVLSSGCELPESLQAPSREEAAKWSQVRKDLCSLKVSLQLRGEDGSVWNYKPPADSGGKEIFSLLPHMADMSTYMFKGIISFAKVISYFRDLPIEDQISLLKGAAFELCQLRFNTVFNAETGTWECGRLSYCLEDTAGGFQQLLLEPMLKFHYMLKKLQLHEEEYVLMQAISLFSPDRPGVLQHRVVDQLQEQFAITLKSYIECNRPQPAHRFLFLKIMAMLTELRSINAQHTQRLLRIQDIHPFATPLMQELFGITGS
Description: An expression vector harboring a full-length PXR nuclear receptor plus the appropriate enhancers and promoters linked to the luciferase reporter gene were integrated into the tumor cells. Tumor cells transfected with the species-specific nuclear receptor and the corresponding response elements were seeded in a 96-well plate. Twenty-four hours after seeding, the cells were treated with six distinct concentrations (0.03-10 μM) of the test compound. The cells were then returned to the incubator for an additional 24 h. After this incubation period, the number of viable cells/well were determined using Promega's Cell Titer Fluor cytotoxicity assay. At the end of the assay, Promega's ONE-Glo was added to assess the receptor activation by monitoring reporter gene activity, and by comparing the results to vehicle-treated cells. Activation data were normalized to the number of viable cells/well. Results are expressed as a percentage of the response given by Rifampicin, the positive control, at a 10 μM dose.

[4] = molecular target: PolQ ATPase enzyme (1-894) (Homo sapiens (Human), UniProt O75417); test: Polθ ATPase enzymatic assay (0.5 nM enzyme concentration), ADP-Glo; type: biochemical; conditions: average IC50; 0.5 nM PolQ ATPase enzyme (1-894)
Sequence of PolQ ATPase enzyme (1-894) (O75417 1-894): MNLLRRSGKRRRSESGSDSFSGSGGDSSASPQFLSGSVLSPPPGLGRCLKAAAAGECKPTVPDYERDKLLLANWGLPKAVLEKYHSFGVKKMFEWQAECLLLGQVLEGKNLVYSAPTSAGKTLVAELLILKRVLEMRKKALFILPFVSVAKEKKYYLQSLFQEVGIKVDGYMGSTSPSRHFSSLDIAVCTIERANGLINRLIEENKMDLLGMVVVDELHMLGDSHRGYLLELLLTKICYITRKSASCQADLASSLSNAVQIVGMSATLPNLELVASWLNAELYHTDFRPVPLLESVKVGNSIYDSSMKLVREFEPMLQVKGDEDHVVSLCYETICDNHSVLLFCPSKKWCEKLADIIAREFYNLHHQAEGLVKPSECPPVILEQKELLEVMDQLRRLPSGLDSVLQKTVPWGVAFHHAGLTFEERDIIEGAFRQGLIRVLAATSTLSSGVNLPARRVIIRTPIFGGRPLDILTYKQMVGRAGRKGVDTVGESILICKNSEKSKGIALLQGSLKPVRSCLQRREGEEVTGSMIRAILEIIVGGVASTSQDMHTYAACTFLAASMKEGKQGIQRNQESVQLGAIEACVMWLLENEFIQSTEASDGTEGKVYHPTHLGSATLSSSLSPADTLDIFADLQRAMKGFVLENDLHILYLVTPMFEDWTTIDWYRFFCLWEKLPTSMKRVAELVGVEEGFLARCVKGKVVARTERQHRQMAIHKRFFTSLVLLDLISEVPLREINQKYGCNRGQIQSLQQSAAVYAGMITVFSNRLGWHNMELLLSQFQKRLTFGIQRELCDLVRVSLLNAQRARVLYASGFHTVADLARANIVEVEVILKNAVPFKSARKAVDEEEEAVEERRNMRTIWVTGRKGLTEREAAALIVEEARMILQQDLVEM
Summary of the method: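 Enzyme (0.5 nM) pre-incubated 15 min at rt with 10-point inhibitor series in 50 mM Tris pH 7.5, 10% glycerol, 5 mM DTT, 10 mM MgCl2, 0.1 mg/ml BSA; reaction started with 20 nM fork DNA and 100 μM ATP, run 180 min at rt. ADP-Glo luminescence; IC50 from 4-parameter variable-slope fit.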

SMILES | IC50 (CYP3A4 [1]) | microsomal CLint at 1 μM [2] | Time-dependent CYP3A4 inhibition-shift after 30 min with NADPH (CYP3A4 [3]) | fold induction at 24 h (PXR nuclear receptor) | PXR activation (% Max activity) (PXR nuclear receptor) | IC50 [4]
COc1ccccc1-c1cnccc1C(=O)Nc1nnc(OCc2ccc(C#N)cc2)s1 | 450 nM | 234 µL/min/mg | 3.6x | 7.9 | 36.0% | –
C=C(C1=CN=CCC1C(=O)Nc1nnc(CCC2CC2)s1)/C(=C\N=C\Cl)OC (centres unmarked) | > 30000 nM | < 7.7 µL/min/mg | 1x | 1.8 | 5.0% | –
COc1ccccc1-c1cnccc1C(=O)Nc1nnc(C#Cc2ccc(Cl)cc2)s1 [Compound 474] | 1940 nM | 22.5 µL/min/mg | 1x | 1.5 | 3.0% | 7.6 nM

Continued, values first:

IC50 (CYP3A4 [1]) | microsomal CLint at 1 μM [2] | Time-dependent CYP3A4 inhibition-shift after 30 min with NADPH (CYP3A4 [3]) | fold induction at 24 h (PXR nuclear receptor) | PXR activation (% Max activity) (PXR nuclear receptor) | IC50 [4] | SMILES
234 nM | 174 µL/min/mg | 1x | 3.9 | 17% | – | COc1ccc(F)cc1-c1cnccc1C(=O)Nc1nnc(OCc2ccc(C#N)cc2)s1
1170 nM | 262 µL/min/mg | >6.5x | 8.8 | 46.0% | – | COc1ccccc1-c1cnccc1C(=O)Nc1nnc(OCc2ccc(Cl)cc2)s1
